Holding throughout (assay type): cell-based
In series [1] the target is T1, ATP-dependent translocase ABCB1 (Homo sapiens, UniProt P08183). The series can be described thus: Inhibition of human MDR1 expressed in mouse L5178 cells assessed as fluorescence activity at 23 uM by rhodamine 123 exclusion test. Particulars: l5178, 23 µM.
The target of series [2] is T1, ATP-dependent translocase ABCB1. The series can be described thus: Inhibition of human MDR1 expressed in mouse L5178 cells assessed as fluorescence activity ratio at 11.2 uM by rhodamine 123 exclusion test relative to wild type mouse L5178 cells. To be noted: l5178, 11.2 µM.
The target is the same in series [3]. The series can be described thus: Inhibition of human MDR1 expressed in mouse L5178 cells assessed as fluorescence activity at 11.2 uM by rhodamine 123 exclusion test. To be noted: l5178, 11.2 µM.
For series [4] the target is unchanged. The series can be described thus: Inhibition of human MDR1 expressed in mouse L5178 cells assessed as fluorescence activity at 112 uM by rhodamine 123 exclusion test. To be noted: l5178, 112 µM.
Series [5] shares this target. The series can be described thus: Inhibition of human MDR1 expressed in mouse L5178 cells assessed as fluorescence activity ratio at 112 uM by rhodamine 123 exclusion test relative to wild type mouse L5178 cells. Particulars: l5178, 112 µM.

Our source for the Flu intensity and Ratio values is ChEMBL document CHEMBL1150694, “Jatrophane diterpenoids from Euphorbia mongolica as modulators of the multidrug resistance of L5128 mouse lymphoma cells” (J Nat Prod, 2003).

T1 sequence (P08183 whole entry): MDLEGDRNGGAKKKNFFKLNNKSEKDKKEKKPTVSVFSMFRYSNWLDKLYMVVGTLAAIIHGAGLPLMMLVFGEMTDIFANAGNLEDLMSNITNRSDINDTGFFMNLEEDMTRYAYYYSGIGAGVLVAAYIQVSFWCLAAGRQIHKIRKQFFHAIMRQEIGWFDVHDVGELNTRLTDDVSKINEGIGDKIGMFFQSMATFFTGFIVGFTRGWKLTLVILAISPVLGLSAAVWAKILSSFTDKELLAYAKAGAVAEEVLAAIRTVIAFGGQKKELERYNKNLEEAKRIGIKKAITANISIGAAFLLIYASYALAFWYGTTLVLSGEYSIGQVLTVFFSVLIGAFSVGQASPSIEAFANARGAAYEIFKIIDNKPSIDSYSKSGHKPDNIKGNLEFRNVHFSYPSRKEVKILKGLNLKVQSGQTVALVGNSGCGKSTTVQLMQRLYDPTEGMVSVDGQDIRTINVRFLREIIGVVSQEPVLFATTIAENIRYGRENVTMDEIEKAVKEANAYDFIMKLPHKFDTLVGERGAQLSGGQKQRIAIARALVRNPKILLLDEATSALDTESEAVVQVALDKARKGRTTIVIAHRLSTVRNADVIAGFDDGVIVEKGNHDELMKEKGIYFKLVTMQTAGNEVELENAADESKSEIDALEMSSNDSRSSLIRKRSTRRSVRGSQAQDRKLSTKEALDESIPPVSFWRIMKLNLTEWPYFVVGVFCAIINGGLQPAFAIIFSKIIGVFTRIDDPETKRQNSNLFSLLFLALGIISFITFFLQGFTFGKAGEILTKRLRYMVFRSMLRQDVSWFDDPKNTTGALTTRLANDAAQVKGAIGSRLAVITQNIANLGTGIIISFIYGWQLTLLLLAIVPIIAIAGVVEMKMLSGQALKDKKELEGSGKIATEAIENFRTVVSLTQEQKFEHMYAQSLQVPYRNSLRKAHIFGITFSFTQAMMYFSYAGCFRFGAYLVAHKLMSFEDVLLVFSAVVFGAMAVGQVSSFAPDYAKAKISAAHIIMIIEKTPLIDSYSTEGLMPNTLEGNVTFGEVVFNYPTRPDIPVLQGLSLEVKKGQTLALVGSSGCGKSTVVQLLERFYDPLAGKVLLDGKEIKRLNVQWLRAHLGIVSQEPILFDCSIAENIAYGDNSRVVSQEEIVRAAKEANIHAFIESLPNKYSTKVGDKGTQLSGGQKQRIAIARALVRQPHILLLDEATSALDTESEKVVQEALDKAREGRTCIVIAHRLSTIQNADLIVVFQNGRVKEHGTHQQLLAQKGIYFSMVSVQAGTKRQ

For `COc1ccc(CCN(C)CCCC(C#N)(c2ccc(OC)c(OC)c2)C(C)C)cc1OC` (stereo not drawn), the Flu intensity in series [1] worked out at 158.9.
Turning to `C=C1[C@H](OC(C)=O)[C@H]2[C@@H](OC(=O)c3ccccc3)[C@@H](C)C[C@]2(O)C(=O)[C@@H](C)/C=C/C(C)(C)C(=O)[C@H](OC(C)=O)[C@H]1OC(C)=O` (relative stereo), the Ratio in series [2] came out at 12.29; in series [5], 22.92. Moreover, the values for the Flu intensity in series [3] and in series [4] were 148.64 and 277.08, respectively.
The matching figures for `C=C1[C@H](OC(C)=O)[C@@H](OC(C)=O)[C@@H](OC(C)=O)C(C)(C)/C=C/[C@H](C)C(=O)[C@@]2(OC(C)=O)C[C@H](C)[C@H](OC(=O)c3ccccc3)[C@@H]2[C@H]1OC(C)=O` (relative stereo): 2.6, 18.02, 31.46 and 217.81.
The like results for `C=C1[C@H](OC(C)=O)[C@@H](OC(C)=O)[C@@H](OC(C)=O)C(C)(C)/C=C/[C@H](C)C(=O)[C@@]2(OC(C)=O)C[C@H](C)[C@H](OC(C)=O)[C@@H]2[C@H]1OC(=O)c1ccccc1` (relative stereo) were, in that order, 2.79, 29.29, 33.71 and 354.21.
